The values below come from PMC9133015 (Nature Communications, 2022).

Several values for one entry are separate records, joined by “and”; a condition that tells them apart may be missing. Equal entries are not always repeated.

Test in all cases: Kinase inhibitor specificity profiling (Reaction Biology Corporation)
What all share (format): biochemical
What all share (design): % Enzyme Activity (relative to DMSO controls): concentration or dose not given beside the values

Assay [1] has as its target T1, panel of 370 protein kinases (Homo sapiens, UniProt Q13163).
T1 construct: purchased Reaction Biology Corporation (assay service)
Conditions: 2 h, kinase MEK5; read-out: % Enzyme Activity (relative to DMSO controls).

Assay [2] has as its target T2, panel of 370 protein kinases (Homo sapiens, UniProt Q8TF76).
T2 construct: purchased Reaction Biology Corporation (assay service)
To be noted: 2 h, kinase Haspin; read-out: % Enzyme Activity (relative to DMSO controls).

For assay [3], the target named is T3, panel of 370 protein kinases (Homo sapiens, UniProt P22607).
T3 construct: purchased Reaction Biology Corporation (assay service)
T3 sequence (P22607 23-806): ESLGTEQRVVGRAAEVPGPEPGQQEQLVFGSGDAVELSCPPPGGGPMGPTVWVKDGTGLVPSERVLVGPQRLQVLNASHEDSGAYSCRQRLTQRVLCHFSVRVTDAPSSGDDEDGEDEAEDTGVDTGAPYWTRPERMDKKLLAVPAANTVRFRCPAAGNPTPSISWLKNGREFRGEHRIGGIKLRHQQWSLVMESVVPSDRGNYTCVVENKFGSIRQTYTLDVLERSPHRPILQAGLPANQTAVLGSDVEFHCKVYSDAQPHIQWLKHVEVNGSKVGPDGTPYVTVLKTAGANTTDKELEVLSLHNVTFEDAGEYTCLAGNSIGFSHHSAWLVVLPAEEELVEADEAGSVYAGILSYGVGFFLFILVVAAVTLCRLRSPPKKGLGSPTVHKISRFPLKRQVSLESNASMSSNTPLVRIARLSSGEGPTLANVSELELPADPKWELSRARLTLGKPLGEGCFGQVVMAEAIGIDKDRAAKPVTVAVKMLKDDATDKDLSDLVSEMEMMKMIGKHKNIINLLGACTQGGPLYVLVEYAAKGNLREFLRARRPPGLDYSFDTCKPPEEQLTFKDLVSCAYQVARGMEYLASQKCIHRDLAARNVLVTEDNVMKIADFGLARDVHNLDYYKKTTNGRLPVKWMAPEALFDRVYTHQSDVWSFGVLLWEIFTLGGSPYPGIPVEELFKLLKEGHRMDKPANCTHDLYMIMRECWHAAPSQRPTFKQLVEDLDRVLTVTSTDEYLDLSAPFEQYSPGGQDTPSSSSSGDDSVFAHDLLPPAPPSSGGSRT
To be noted: 2 h, kinase FGFR3; read-out: % Enzyme Activity (relative to DMSO controls).

For assay [4], the target named is T4, panel of 370 protein kinases (Homo sapiens, UniProt Q9NRH2).
T4 construct: purchased Reaction Biology Corporation (assay service)
Conditions: 2 h, kinase SNRK; read-out: % Enzyme Activity (relative to DMSO controls).

Assay [5] concerns the target T5, panel of 370 protein kinases (Homo sapiens, UniProt O43293).
T5 construct: purchased Reaction Biology Corporation (assay service)
To be noted: 2 h, kinase ZIPK/DAPK3; read-out: % Enzyme Activity (relative to DMSO controls).

Assay [6] addresses T6, panel of 370 protein kinases (Homo sapiens, UniProt P17252).
T6 construct: purchased Reaction Biology Corporation (assay service)
Conditions: 2 h, kinase PKCa; read-out: % Enzyme Activity (relative to DMSO controls).

In assay [7] the target is T7, panel of 370 protein kinases (Homo sapiens, UniProt Q9UQM7).
T7 construct: purchased Reaction Biology Corporation (assay service)
To be noted: 2 h, kinase CAMK2a; read-out: % Enzyme Activity (relative to DMSO controls).

The target of assay [8] is T8, panel of 370 protein kinases (Homo sapiens, UniProt P22612).
T8 construct: purchased Reaction Biology Corporation (assay service)
To be noted: 2 h, kinase PKAcg; read-out: % Enzyme Activity (relative to DMSO controls).

For assay [9], the target named is T9, panel of 370 protein kinases (Homo sapiens, UniProt P16591).
T9 construct: purchased Reaction Biology Corporation (assay service)
T9 sequence (P16591 whole entry): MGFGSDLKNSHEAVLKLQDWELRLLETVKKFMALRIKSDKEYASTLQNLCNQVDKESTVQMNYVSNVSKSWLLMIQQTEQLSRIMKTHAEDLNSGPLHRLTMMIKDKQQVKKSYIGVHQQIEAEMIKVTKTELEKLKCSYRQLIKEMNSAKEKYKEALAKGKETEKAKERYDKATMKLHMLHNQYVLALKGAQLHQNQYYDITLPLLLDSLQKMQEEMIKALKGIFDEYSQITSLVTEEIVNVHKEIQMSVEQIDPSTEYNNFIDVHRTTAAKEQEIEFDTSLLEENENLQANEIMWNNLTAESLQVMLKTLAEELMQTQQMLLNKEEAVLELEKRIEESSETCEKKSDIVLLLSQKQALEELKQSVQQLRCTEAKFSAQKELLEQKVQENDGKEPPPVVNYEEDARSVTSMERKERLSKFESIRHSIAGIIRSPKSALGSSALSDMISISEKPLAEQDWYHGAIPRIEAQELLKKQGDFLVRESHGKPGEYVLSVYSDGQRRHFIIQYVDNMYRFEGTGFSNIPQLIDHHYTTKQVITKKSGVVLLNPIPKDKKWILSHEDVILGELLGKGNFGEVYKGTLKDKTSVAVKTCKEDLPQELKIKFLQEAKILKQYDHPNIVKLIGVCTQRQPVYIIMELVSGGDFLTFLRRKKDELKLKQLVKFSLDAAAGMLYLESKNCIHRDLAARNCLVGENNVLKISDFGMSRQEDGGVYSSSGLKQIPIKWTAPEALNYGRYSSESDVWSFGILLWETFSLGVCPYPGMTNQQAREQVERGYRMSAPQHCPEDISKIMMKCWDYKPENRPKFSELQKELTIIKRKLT
Conditions: 2 h, kinase FER; read-out: % Enzyme Activity (relative to DMSO controls).

Assay [10] has as its target T10, panel of 370 protein kinases (Homo sapiens, UniProt P16234).
T10 construct: purchased Reaction Biology Corporation (assay service)
To be noted: 2 h, kinase PDGFRa; read-out: % Enzyme Activity (relative to DMSO controls).

The target of assay [11] is T11, panel of 370 protein kinases (Homo sapiens, UniProt Q08881).
T11 construct: purchased Reaction Biology Corporation (assay service)
T11 sequence (Q08881 whole entry): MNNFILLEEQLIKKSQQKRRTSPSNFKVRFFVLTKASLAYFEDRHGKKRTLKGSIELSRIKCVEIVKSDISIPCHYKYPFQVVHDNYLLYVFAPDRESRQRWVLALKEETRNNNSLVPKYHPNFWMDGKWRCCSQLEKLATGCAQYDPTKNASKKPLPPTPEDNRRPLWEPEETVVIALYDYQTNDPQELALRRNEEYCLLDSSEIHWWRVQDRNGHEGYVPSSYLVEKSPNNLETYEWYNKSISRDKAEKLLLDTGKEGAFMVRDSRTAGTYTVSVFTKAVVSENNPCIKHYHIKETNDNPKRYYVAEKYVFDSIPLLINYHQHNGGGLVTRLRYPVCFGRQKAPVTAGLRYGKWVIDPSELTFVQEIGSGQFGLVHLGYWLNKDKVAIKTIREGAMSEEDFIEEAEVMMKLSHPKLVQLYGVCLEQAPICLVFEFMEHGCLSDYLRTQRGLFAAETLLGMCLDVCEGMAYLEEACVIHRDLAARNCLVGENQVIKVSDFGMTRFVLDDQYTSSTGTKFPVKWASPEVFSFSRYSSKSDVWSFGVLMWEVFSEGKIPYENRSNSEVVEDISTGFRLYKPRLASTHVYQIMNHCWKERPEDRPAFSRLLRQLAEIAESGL
To be noted: kinase ITK.

In assay [12] the target is T12, panel of 370 protein kinases (Homo sapiens, UniProt P24723).
T12 construct: purchased Reaction Biology Corporation (assay service)
T12 sequence (P24723 whole entry): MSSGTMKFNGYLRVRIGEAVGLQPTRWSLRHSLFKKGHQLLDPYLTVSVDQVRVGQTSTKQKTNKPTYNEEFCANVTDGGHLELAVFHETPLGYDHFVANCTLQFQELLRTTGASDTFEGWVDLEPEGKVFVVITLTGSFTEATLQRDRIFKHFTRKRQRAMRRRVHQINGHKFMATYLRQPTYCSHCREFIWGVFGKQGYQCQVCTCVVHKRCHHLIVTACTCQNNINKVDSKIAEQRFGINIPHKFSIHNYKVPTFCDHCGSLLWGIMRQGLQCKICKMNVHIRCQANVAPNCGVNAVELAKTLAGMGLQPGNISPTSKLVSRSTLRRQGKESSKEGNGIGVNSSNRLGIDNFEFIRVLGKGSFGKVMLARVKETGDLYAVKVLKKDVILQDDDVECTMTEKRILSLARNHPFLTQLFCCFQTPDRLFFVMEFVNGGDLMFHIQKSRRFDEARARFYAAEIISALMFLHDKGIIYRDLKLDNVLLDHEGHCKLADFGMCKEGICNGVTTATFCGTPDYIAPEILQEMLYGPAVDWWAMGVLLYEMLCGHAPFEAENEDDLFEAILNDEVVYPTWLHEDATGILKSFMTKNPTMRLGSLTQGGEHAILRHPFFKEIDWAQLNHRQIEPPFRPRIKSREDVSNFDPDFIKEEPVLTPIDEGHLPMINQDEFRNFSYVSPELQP
To be noted: 2 h, kinase PKCeta; read-out: % Enzyme Activity (relative to DMSO controls).

Assay [13] deals with T13, panel of 370 protein kinases (Homo sapiens, UniProt P78362).
T13 construct: purchased Reaction Biology Corporation (assay service)
To be noted: 2 h, kinase SRPK2; read-out: % Enzyme Activity (relative to DMSO controls).

Assay [14] has as its target T14, panel of 370 protein kinases (Homo sapiens, UniProt Q96S53).
T14 construct: purchased Reaction Biology Corporation (assay service)
Conditions: 2 h, kinase TESK2; read-out: % Enzyme Activity (relative to DMSO controls).

Assay [15] deals with T15, panel of 370 protein kinases (Homo sapiens, UniProt P41743).
T15 construct: purchased Reaction Biology Corporation (assay service)
To be noted: 2 h, kinase PKCiota; read-out: % Enzyme Activity (relative to DMSO controls).

The target of assay [16] is T16, panel of 370 protein kinases (Homo sapiens, UniProt Q06187).
T16 construct: purchased Reaction Biology Corporation (assay service)
T16 sequence (Q06187 whole entry): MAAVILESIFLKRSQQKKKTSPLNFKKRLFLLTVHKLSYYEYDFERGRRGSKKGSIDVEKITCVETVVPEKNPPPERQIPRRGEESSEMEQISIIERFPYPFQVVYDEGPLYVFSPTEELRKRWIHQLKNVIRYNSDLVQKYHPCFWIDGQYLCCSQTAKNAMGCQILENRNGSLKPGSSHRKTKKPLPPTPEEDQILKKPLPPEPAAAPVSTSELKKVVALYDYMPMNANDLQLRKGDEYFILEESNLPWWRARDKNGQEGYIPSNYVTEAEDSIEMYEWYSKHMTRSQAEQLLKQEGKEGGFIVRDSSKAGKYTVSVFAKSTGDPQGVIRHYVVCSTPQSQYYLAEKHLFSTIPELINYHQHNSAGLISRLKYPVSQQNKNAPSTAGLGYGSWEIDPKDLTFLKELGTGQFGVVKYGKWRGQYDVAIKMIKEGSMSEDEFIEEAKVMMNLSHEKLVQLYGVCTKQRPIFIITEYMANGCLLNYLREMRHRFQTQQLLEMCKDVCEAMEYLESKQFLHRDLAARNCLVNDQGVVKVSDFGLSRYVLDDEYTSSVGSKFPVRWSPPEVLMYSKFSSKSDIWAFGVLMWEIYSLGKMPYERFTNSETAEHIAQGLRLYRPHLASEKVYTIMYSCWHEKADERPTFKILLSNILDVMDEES
To be noted: kinase BTK.

The target of assay [17] is T17, panel of 370 protein kinases (Homo sapiens, UniProt Q76MJ5).
T17 construct: purchased Reaction Biology Corporation (assay service)
Conditions: 2 h, kinase ERN2/IRE2; read-out: % Enzyme Activity (relative to DMSO controls).

The target in assay [18] is T18, panel of 370 protein kinases (Homo sapiens, UniProt Q15208).
T18 construct: purchased Reaction Biology Corporation (assay service)
Conditions: 2 h, kinase STK38/NDR1; read-out: % Enzyme Activity (relative to DMSO controls).

Assay [19] addresses T19, panel of 370 protein kinases (Homo sapiens, UniProt Q9BYT3).
T19 construct: purchased Reaction Biology Corporation (assay service)
To be noted: 2 h, kinase STK33; read-out: % Enzyme Activity (relative to DMSO controls).

The target of assay [20] is T20, panel of 370 protein kinases (Homo sapiens, UniProt P04626).
T20 construct: purchased Reaction Biology Corporation (assay service)
Conditions: 2 h, kinase ERBB2/HER2; read-out: % Enzyme Activity (relative to DMSO controls).

Assay [21] deals with T21, panel of 370 protein kinases (Homo sapiens, UniProt P04629).
T21 construct: purchased Reaction Biology Corporation (assay service)
Conditions: 2 h, kinase TRKA; read-out: % Enzyme Activity (relative to DMSO controls).

T2 sequence (Q8TF76 whole entry): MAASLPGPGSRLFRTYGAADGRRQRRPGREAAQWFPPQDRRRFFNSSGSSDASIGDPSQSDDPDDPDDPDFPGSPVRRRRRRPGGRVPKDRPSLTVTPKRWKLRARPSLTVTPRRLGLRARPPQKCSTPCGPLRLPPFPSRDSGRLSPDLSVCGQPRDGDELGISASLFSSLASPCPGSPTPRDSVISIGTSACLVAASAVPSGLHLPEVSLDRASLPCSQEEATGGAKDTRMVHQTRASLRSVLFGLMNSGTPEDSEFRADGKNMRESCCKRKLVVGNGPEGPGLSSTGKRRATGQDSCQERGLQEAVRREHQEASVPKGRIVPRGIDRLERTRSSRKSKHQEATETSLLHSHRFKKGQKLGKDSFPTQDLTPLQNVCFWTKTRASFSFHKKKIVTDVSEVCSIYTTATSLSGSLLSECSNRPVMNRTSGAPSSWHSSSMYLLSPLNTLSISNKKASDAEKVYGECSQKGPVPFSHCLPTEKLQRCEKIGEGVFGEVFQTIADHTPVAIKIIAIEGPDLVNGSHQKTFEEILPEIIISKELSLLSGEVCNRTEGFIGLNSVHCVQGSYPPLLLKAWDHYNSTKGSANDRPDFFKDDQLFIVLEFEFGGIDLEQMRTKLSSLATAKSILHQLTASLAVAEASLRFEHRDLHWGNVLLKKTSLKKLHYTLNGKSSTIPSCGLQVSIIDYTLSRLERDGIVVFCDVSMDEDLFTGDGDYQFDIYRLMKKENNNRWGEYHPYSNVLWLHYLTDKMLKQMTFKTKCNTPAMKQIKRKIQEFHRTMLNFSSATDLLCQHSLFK
T5 sequence (O43293 whole entry): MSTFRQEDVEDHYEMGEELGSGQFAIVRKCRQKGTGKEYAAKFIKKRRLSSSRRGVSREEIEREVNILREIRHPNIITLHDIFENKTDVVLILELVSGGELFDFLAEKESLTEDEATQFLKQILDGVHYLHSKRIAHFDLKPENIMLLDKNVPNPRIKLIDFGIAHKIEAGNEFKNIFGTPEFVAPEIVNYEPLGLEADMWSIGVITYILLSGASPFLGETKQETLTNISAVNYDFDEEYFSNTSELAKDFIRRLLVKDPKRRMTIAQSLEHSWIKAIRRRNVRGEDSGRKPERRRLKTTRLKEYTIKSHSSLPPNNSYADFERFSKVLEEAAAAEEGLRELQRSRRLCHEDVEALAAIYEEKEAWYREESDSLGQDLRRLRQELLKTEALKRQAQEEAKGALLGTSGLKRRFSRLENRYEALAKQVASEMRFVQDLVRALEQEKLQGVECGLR

On to `CCN1CCN(C(=O)c2ccc(Nc3ncc(F)c(-c4ccc5nc(N(C)C)sc5c4)n3)nc2)CC1` [YK-2-69], for which the remaining activity at 1 µM in assay [1] came out at 96.3%; in [2], 99%; in [3], 94%; in [4] it was 95.4%; in assay [5], 67.1%; in assay [6], 80%. Further, the remaining activity at 1 µM in [7] turned out to be 37.5%; in [8] it was 96.9%; in assay [9], 106%; in assay [10] it was 104%; in assay [12], 77%; in assay [13], 89.3%. Also, the remaining activity at 1 µM in assay [14] came out at 98.2%; in assay [15], 84.8%; in assay [17] it was 88.5%; in assay [18] it was 85.5%; in [19], 80.1%; in [20] it was 100%. Besides, the remaining activity at 1 µM in assay [21] is 104%. Besides, the “% Enzyme Activity (relative to DMSO controls)” value in assay [11] was 117.90% and 109.49%; in assay [16] it was 90.26% and 87.58%.
